IC50 data for 28 molecules are collected here from patent publication US12565501B2, “Muscarinic acetylcholine M1 receptor antagonists” (Contineum Therapeutics, Inc., priority 2019, dated 2026).

Structures are written as SMILES.

The target of the assay is T1, human M1 receptor (Homo sapiens, UniProt P11229).
T1 sequence (P11229 1-460): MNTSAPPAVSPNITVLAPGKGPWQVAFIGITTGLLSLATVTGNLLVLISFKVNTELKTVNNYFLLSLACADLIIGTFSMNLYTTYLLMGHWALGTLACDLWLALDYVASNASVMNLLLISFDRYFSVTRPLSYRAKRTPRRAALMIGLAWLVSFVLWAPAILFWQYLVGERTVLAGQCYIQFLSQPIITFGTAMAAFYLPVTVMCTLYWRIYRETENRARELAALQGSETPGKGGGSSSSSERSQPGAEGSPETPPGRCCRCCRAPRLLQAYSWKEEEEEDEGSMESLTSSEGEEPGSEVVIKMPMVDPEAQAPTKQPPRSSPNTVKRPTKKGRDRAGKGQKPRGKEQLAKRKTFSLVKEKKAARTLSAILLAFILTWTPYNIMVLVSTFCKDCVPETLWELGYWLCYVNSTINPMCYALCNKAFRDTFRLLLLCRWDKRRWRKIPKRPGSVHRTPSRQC
In words: In vitro functional assay of muscarinic acetylcholine receptor activity (aequorin calcium flux, reversal of EC80 acetylcholine response). The format is cell-based. Particulars: CHO-K1 cells stably expressing human M1 receptor with aequorin; acetylcholine at EC80; calcium flux (luminescence); read-out: M1 IC50. As for the experimental part:
CHO-K1 cells stably expressing human M1 receptor with aequorin (Perkin Elmer) were grown in F12 media (Gibco) containing 10% FBS (ATCC), 0.4 mg/mL geneticin (Sigma-Aldrich) and 0.25 mg/mL Zeocin (Invitrogen). Cells were grown as per the manufacturer's protocol. For compound testing, cells were grown to confluency and detached gently with Accutase (Sigma-Aldrich) followed by centrifugation for 5 min at 150× g. Cells were then re-suspended in assay buffer (i.e. DMEM/F-12 HEPES without phenol red (Invitrogen) with 0.1% BSA (Sigma-Aldrich)) at a density of 5×10^6 cells/ml. Under sterile conditions, 5 μM coelenterazine (Invitrogen) was added to the cells, mixed, then incubated at room temperature protected from light, with gentle agitation, for 4 h.
Primary compound plates were prepared in 100% DMSO in opaque 96-well plates (VWR) and serially diluted in half log increments. Secondary compound plates were prepared at 3× concentration in assay buffer. Compounds were added to white, clear bottom tissue culture treated 96-well plates (Fisher Scientific). Coelenterazine-loaded cells were then added at 5×10^5 cells/well.
Compounds and cells were incubated at room temperature for 30 min in the dark. Acetylcholine at the EC80 concentration was added and calcium flux measured using a FlexStation 3 (Molecular Devices). Sigmoidal dose-response curves were generated by measuring luminescence over 40 sec and calculating the area under the curve. Dose response curves and IC50 values were generated using Prism (GraphPad). Compounds were tested at a final concentration range of 100 μM to […] in 0.1% DMSO.
Turning to `N#Cc1ccc(N2C3CCC2CN(C(=O)/C=C/C(F)(F)c2cccc4ncnn24)C3)nc1` [Example 148, 6-(-3-((E)-4-([1,2,4]triazolo[1,5-a]pyridin-5-yl)-4,4-difluorobut-2-enoyl)-3,8-diazabicyclo[3.2.1]octan-8-yl)nicotinonitrile], the half-inhibitory concentration (IC50) was below 10 nM.

As for `N#Cc1ccc(N2C3CCC2CN(C(=O)CNC2CCc4ccccc42)C3)nc1` (racemic) [Example 89, 6-(3-((2,3-dihydro-1H-inden-1-yl)glycyl)-3,8-diazabicyclo[3.2.1]octan-8-yl)nicotinonitrile], the IC50 was 1000 to 10000 nM.

Turning to `COc1ccncc1C1(OCC(=O)N2CC3CCC(C2)N3c2ccc(C#N)cn2)CCC1` [Example 258, 6-(3-(2-(1-(4-methoxypyridin-3-yl)cyclobutoxy)acetyl)-3,8-diazabicyclo[3.2.1]octan-8-yl)nicotinonitrile], the IC50 was below 10 nM.

Regarding `N#Cc1ccc(N2[C@@H]3CC[C@H]2CN(C(=O)CCNC2(c4cccc(F)c4)CC2)C3)nc1` [Example 4, 6-(3-(3-((1-(3-fluorophenyl)cyclopropyl)amino)propanoyl)-3,8-diazabicyclo[3.2.1]octan-8-yl)nicotinonitrile], the half-maximal inhibitory concentration (IC50) lay in the range of 10 to 100 nM.

`C[C@H](COCC(=O)N1CC2CCC(C1)N2c1ccc(C#N)cn1)c1ccccc1` [Example 186, 6-(3-(2-((S)-2-phenylpropoxy)acetyl)-3,8-diazabicyclo[3.2.1]octan-8-yl)nicotinonitrile]: the half-maximal inhibitory concentration (IC50) was in the range of 1000 to 10000 nM.

Consider `COc1cncc(C2(OCC(=O)N3CC4CCC(C3)N4c3ccc(C#N)cn3)CC2)c1` [Example 230, 6-(3-(2-(1-(5-methoxypyridin-3-yl)cyclopropoxy)acetyl)-3,8-diazabicyclo[3.2.1]octan-8-yl)nicotinonitrile], for which the half-inhibitory concentration (IC50) was below 10 nM.

Consider `N#Cc1ccc(N2C3CCC2CN(C(=O)COC2(c4ncccn4)CCC2)C3)nc1` [Example 273, 6-(3-(2-(1-(pyrimidin-2-yl)cyclobutoxy)acetyl)-3,8-diazabicyclo[3.2.1]octan-8-yl)nicotinonitrile], for which the IC50 lay in the range of 100 to 1000 nM.

For `N#Cc1ccc(N2C3CCC2CN(C(=O)COCC2(c4ccncc4)CC2)C3)nc1` [Example 189, 6-(3-(2-((1-(pyridin-4-yl)cyclopropyl)methoxy)acetyl)-3,8-diazabicyclo[3.2.1]octan-8-yl)nicotinonitrile], the IC50 lay in the range of 1000 to 10000 nM.

Regarding `N#Cc1ccc(N2C3CCC2CN(C(=O)COC2(c4ccccn4)CCC2)C3)nc1` [Example 246, 6-(3-(2-(1-(pyridin-2-yl)cyclobutoxy)acetyl)-3,8-diazabicyclo[3.2.1]octan-8-yl)nicotinonitrile], the 50% inhibitory concentration (IC50) is 1000 to 10000 nM.

Regarding `N#Cc1ccc(N2C3CCC2CN(C(=O)CNC2(c4cccnn4)CC2)C3)nc1` [Example 64, 6-(3-((1-(pyridazin-3-yl)cyclopropyl)glycyl)-3,8-diazabicyclo[3.2.1]octan-8-yl)nicotinonitrile], the IC50 lay within 100 to 1000 nM.

On to `N#Cc1ccc(N2C3CCC2CN(C(=O)COC2(c4cccc(F)c4F)CC2)C3)nc1` [Example 211, 6-(3-(2-(1-(2,3-difluorophenyl)cyclopropoxy)acetyl)-3,8-diazabicyclo[3.2.1]octan-8-yl)nicotinonitrile], for which the half-inhibitory concentration (IC50) fell in the range of 10 to 100 nM.

`N#Cc1ccc(N2C3CCC2CN(C(=O)CNC2(c4ccc(F)cn4)CC2)C3)nc1` [Example 69, 6-(3-((1-(5-fluoropyridin-2-yl)cyclopropyl)glycyl)-3,8-diazabicyclo[3.2.1]octan-8-yl)nicotinonitrile]: the 50% inhibitory concentration (IC50) is 100 to 1000 nM.

Turning to `CC(SCCC(=O)N1CC2CCC(C1)N2c1ccc(C#N)cn1)c1ccccc1Br` (racemic) [Example 136, 6-((3-((1-(2-bromophenyl)ethyl)thio)propanoyl)-3,8-diazabicyclo[3.2.1]octan-8-yl)nicotinonitrile], the IC50 fell in the range of 100 to 1000 nM.

As to `N#Cc1ccc(N2[C@@H]3CC[C@H]2CN(C(=O)CCNC(c2cccc4ncsc24)C(F)(F)F)C3)nc1` (mixture of isomers) [Example 52, 6-(3-(3-((1-(benzo[d]thiazol-7-yl)-2,2,2-trifluoroethyl)amino)propanoyl)-3,8-diazabicyclo[3.2.1]octan-8-yl)nicotinonitrile], the IC50 was below 10 nM.

Turning to `COc1cc(C2(NCCC(=O)N3CC4CCC(C3)N4c3ccc(C#N)cn3)CC2)ccn1` [Example 36, 6-(3-(3-((1-(2-methoxypyridin-4-yl)cyclopropyl)amino)propanoyl)-3,8-diazabicyclo[3.2.1]octan-8-yl)nicotinonitrile], the 50% inhibitory concentration (IC50) was in the range of 1000 to 10000 nM.

`COc1cnc2cccc(C(C)NCCC(=O)N3C[C@H]4CC[C@@H](C3)N4c3ccc(C#N)cn3)c2c1` (mixture of isomers) [Example 50, 6-(3-(3-((1-(3-methoxyquinolin-5-yl)ethyl)amino)propanoyl)-3,8-diazabicyclo[3.2.1]octan-8-yl)nicotinonitrile]: the concentration for half-maximal inhibition (IC50) is below 10 nM.

In the case of `COc1c(F)cccc1C(C)NCC(=O)N1CC2CCC(C1)N2c1ccc(C#N)cn1` (racemic) [Example 55, 6-(3-((1-(3-fluoro-2-methoxyphenyl)ethyl)glycyl)-3,8-diazabicyclo[3.2.1]octan-8-yl)nicotinonitrile], the IC50 is below 10 nM.

As for `COc1cccc([C@H](C)NCC(=O)N2CC3CCC(C2)N3c2ccc(C#N)cn2)c1` [Example 92, 6-(3-(((S)-1-(3-methoxyphenyl)ethyl)glycyl)-3,8-diazabicyclo[3.2.1]octan-8-yl)nicotinonitrile], the half-inhibitory concentration (IC50) was below 10 nM.

For the molecule `COc1cc(C2(NCC(=O)N3CC4CCC(C3)N4c3ccc(C#N)cn3)CC2)c(F)cn1` [Example 74, 6-(3-((1-(5-fluoro-2-methoxypyridin-4-yl)cyclopropyl)glycyl)-3,8-diazabicyclo[3.2.1]octan-8-yl)nicotinonitrile], the IC50 was in the range of 10 to 100 nM.

Take `C[C@H](NCCC(=O)N1C[C@H]2CC[C@@H](C1)N2c1ccc(C#N)cn1)c1ccc(F)c(F)c1` [Example 8, 6-(3-(3-(((S)-1-(3,4-difluorophenyl)ethyl)amino)propanoyl)-3,8-diazabicyclo[3.2.1]octan-8-yl)nicotinonitrile]: the IC50 fell in the range of 100 to 1000 nM.

Take `N#Cc1ccc(N2C[C@@H]3C[C@H]2CN3C(=O)CNC2(c3ccc(F)cc3F)CC2)nc1` [Example 82, 6-((1S,4S)-5-((1-(2,4-difluorophenyl)cyclopropyl)glycyl)-2,5-diazabicyclo[2.2.1]heptan-2-yl)nicotinonitrile]: the IC50 is above 1000 nM.

As to `C[C@H](OCCC(=O)N1CC2CCC(C1)N2c1ccc(C#N)cn1)c1ccccc1` [Example 305, 6-(3-(3-((S)-1-phenylethoxy)propanoyl)-3,8-diazabicyclo[3.2.1]octan-8-yl)nicotinonitrile], the IC50 is 100 to 1000 nM.

On to `N#Cc1ccc(N2C3CCC2CN(C(=O)COC2(c4ncc(F)cc4F)CCC2)C3)nc1` [Example 271, 6-(3-(2-(1-(3,5-difluoropyridin-2-yl)cyclobutoxy)acetyl)-3,8-diazabicyclo[3.2.1]octan-8-yl)nicotinonitrile], for which the half-inhibitory concentration (IC50) is 100 to 1000 nM.

With `N#Cc1ccc(N2[C@@H]3CC[C@H]2CN(C(=O)CCNC2(c4ccc(F)cn4)CC2)C3)nc1` [Example 29, 6-(3-(3-((1-(5-fluoropyridin-2-yl)cyclopropyl)amino)propanoyl)-3,8-diazabicyclo[3.2.1]octan-8-yl)nicotinonitrile], the 50% inhibitory concentration (IC50) lay in the range of 1000 to 10000 nM.

Turning to `COc1ncccc1C(F)(F)/C=C/C(=O)N1C[C@H]2CC[C@@H](C1)N2c1ccc(C#N)cn1` [Example 141, 6-(3-((E)-4,4-difluoro-4-(2-methoxypyridin-3-yl)but-2-enoyl)-3,8-diazabicyclo[3.2.1]octan-8-yl)nicotinonitrile], the half-maximal inhibitory concentration (IC50) was below 10 nM.

Turning to `COc1cc(C2(OCC(=O)N3CC4CCC(C3)N4c3ccc(C#N)cn3)CCC2)ccn1` [Example 252, 6-(3-(2-(1-(2-methoxypyridin-4-yl)cyclobutoxy)acetyl)-3,8-diazabicyclo[3.2.1]octan-8-yl)nicotinonitrile], the IC50 lay within 10 to 100 nM.

Turning to `N#Cc1cc(N2C3CCC2CN(C(=O)CNC2(c4ccc(F)cc4F)CC2)C3)ccn1` [Example 84, 4-(3-((1-(2,4-difluorophenyl)cyclopropyl)glycyl)-3,8-diazabicyclo[3.2.1]octan-8-yl)picolinonitrile], the half-inhibitory concentration (IC50) lay within 100 to 1000 nM.

Take `N#Cc1ccc(N2C3CC2CN(C(=O)CNC2(c4ccc(F)cc4F)CC2)C3)nc1` [Example 79, 6-(3-((1-(2,4-difluorophenyl)cyclopropyl)glycyl)-3,6-diazabicyclo[3.1.1]heptan-6-yl)nicotinonitrile]: the IC50 is 1000 to 10000 nM.
